The text below walks through data of patent US20200216416A1, “QUINOLINE COMPOUNDS AS INHIBITORS OF TAM AND MET KINASES” (Array BioPharma Inc., priority 2019, published 2020).

The target of one assay is T1, human MET kinase F1200I (Homo sapiens, UniProt P08581, F1200I).
T1 construct: GST-tagged recombinant human MET kinase domain; purchased Signal Chem
Put plainly: c-Met Enzyme Assay, F1200I mutant. It is filed as binding. Particulars: averaged IC50; F1200I 2 nM; 60-minute incubation at 22° C. Summed up:
(§1)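 LanthaScreen Eu TR-FRET binding: GST-tagged recombinant MET kinase domain incubated with compound, 50 nM Alexa-Fluor Tracer 236 and 2 nM Eu-anti-GST in 25 mM HEPES pH 7.4, 10 mM MgCl2, 1 mM DTT, 2% DMSO, 60 min at 22 °C. Ratiometric emission gave percent of control; IC50 from 4-parameter fit at 50 POC.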

In a further assay the target is T2, human MET kinase Y1230S (Homo sapiens, UniProt P08581, Y1230S).
T2 construct: GST-tagged recombinant human MET kinase domain; purchased Signal Chem
Put plainly: c-Met Enzyme Assay, Y1230S mutant. It is filed as binding. To be noted: averaged IC50; Y1230S 8 nM; 60-minute incubation at 22° C.; read-out: Y1230 S IC50. Summed up:
as §1

The next assay concerns the target T3, human MET kinase L1195V (Homo sapiens, UniProt P08581, L1195V).
T3 construct: GST-tagged recombinant human MET kinase domain; purchased Signal Chem
In words: c-Met Enzyme Assay, L1195V mutant. The format is binding. To be noted: averaged IC50; L1195V 10 nM; 60-minute incubation at 22° C. Summed up: as §1

For another assay, the target named is T4, human MET kinase Y1230C (Homo sapiens, UniProt P08581, Y1230C).
T4 construct: GST-tagged recombinant human MET kinase domain; purchased Signal Chem
In words: c-Met Enzyme Assay, Y1230C mutant. The format is binding. To be noted: averaged IC50; Y1230C 2 nM; 60-minute incubation at 22° C.; read-out: Y1230 C IC50. Summed up: as §1

For another assay, the target named is T5, human MET kinase D1228N (Homo sapiens, UniProt P08581, D1228N).
T5 construct: GST-tagged recombinant human MET kinase domain; purchased Signal Chem
In words: c-Met Enzyme Assay, D1228N mutant. The format is binding. To be noted: averaged IC50; D1228N 2 nM; 60-minute incubation at 22° C.; read-out: D1228 N IC50. Summed up:
as §1

Another assay has as its target T6, human MET kinase D1228H (Homo sapiens, UniProt P08581, D1228H).
T6 construct: GST-tagged recombinant human MET kinase domain; purchased Signal Chem
In words: c-Met Enzyme Assay, D1228H mutant. It is filed as binding. Particulars: averaged IC50; D1228H 2 nM; 60-minute incubation at 22° C.; read-out: D1228 H IC50. Summed up:
as §1

Assay [1] concerns the target T7, His-tagged recombinant human MER cytoplasmic domain (Homo sapiens, UniProt Q12866).
T7 construct: His-tagged recombinant human MER cytoplasmic domain
T7 sequence (Q12866 527-999 limits assumed): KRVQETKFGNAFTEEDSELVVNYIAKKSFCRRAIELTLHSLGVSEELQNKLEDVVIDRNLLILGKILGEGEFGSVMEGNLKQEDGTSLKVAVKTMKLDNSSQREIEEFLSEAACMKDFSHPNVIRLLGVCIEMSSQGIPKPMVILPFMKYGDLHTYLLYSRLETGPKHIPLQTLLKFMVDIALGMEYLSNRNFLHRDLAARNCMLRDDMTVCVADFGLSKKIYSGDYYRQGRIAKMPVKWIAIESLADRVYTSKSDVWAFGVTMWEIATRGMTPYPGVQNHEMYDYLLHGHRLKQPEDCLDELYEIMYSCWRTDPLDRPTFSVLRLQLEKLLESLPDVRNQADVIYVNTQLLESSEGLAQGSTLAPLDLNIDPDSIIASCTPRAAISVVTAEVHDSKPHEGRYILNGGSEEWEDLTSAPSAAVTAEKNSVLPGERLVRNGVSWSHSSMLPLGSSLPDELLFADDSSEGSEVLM
Put plainly: MER Enzyme Assay (LanthaScreen Eu Kinase Binding). To be noted: averaged IC50; MER 5 nM; 60-minute incubation at 22° C.; TR-FRET. Summed up: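 TR-FRET binding: 5 nM His-MER cytoplasmic domain with 20 nM Tracer 236, 2 nM biotin-anti-His and 2 nM Eu-streptavidin in pH 7.4 HEPES, 10 mM MgCl2, 2% DMSO, with threefold compound dilutions, 60 min at 22 °C. Percent of control was fit to a 4-parameter logistic, and IC50 was taken at 50 POC.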
A general note: TR-FRET usually uses a lanthanide donor and a delayed reading to cut background.

The target of the next assay is T8, human MET kinase Y1230H (Homo sapiens, UniProt P08581, Y1230H).
T8 construct: GST-tagged recombinant human MET kinase domain; purchased Signal Chem
In words: c-Met Enzyme Assay, Y1230H mutant. The format is binding. To be noted: averaged IC50; Y1230H 5 nM; 60-minute incubation at 22° C.; read-out: Y1230 H IC50. Summed up:
as §1

T5 sequence (P08581 1078-1345 D1228N): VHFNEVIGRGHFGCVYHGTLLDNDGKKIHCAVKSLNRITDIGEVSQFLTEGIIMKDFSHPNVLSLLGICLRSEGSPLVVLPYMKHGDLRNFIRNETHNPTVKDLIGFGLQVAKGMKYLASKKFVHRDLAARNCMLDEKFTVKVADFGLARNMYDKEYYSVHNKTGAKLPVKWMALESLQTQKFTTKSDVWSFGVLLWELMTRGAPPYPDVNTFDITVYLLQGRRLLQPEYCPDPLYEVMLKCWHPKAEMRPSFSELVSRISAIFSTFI
T1 sequence (P08581 1078-1345 F1200I limits assumed): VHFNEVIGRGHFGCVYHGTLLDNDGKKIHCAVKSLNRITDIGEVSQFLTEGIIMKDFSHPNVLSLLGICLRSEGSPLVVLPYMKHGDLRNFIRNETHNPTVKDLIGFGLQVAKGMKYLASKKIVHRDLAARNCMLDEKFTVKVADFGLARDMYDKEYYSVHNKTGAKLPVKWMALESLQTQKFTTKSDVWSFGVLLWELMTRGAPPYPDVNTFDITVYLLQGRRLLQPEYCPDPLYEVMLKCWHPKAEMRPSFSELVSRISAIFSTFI
T8 sequence (P08581 1078-1345 Y1230H): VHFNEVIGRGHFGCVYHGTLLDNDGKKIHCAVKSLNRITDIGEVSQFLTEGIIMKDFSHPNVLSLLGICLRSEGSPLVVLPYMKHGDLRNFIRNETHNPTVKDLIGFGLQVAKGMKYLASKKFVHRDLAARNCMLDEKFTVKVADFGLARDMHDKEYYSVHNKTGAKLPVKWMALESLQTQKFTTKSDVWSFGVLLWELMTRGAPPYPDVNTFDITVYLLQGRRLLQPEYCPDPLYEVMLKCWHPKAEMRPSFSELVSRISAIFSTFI
T3 sequence (P08581 1078-1345 L1195V limits assumed): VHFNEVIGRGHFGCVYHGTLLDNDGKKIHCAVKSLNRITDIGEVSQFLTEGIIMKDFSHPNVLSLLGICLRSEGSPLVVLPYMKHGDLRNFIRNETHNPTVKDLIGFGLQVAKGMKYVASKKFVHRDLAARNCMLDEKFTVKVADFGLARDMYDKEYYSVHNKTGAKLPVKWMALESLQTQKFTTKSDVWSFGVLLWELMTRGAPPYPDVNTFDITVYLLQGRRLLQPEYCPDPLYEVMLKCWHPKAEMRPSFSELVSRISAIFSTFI
T2 sequence (P08581 1078-1345 Y1230S): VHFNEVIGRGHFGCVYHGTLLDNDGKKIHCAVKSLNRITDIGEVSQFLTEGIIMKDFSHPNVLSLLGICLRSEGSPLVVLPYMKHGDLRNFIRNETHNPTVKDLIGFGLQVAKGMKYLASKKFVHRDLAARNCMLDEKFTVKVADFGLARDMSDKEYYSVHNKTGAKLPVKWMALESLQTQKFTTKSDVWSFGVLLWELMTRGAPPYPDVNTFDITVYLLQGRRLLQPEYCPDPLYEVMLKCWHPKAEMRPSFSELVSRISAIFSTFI
T4 sequence (P08581 1078-1345 Y1230C): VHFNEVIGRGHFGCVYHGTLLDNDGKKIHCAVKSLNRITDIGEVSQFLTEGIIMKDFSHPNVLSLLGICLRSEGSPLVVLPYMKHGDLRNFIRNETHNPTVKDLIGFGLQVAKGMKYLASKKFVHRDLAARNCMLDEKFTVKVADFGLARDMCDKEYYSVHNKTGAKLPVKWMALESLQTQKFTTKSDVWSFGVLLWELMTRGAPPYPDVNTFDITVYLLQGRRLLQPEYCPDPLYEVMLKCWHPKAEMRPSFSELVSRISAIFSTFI
T6 sequence (P08581 1078-1345 D1228H): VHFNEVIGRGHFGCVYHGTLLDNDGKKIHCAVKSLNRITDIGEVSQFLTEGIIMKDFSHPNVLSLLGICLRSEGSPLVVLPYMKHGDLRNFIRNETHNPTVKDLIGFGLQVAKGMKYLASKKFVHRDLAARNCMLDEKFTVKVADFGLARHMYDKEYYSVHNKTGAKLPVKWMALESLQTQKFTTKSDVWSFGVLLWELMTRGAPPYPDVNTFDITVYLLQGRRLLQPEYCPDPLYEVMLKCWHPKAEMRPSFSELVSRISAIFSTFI

As for `COc1cc2c(Oc3ccc(NC(=O)c4cn(C(C)C)c(C)c(-c5ccc(F)cc5)c4=O)nc3)ccnc2cc1F` [Example 48, N-(5-((7-fluoro-6-methoxyquinolin-4yl)oxy)pyridin-2-yl)-5-(4-fluorophenyl)-1-isopropyl-6-methyl-4-oxo-1,4-dihydropyridine-3-carboxamide], the IC50 at human MET kinase F1200I came out at 5.4 nM; on human MET kinase Y1230S, 8.8 nM; at human MET kinase L1195V it was 31.7 nM; at human MET kinase Y1230C it was 9.4 nM; on human MET kinase D1228N it was 14.6 nM; at human MET kinase D1228H, 11.9 nM. In addition, the results for the IC50 (in assay [1]; on human MET kinase Y1230H) were 5 nM and 15.8 nM, respectively.

For the molecule `COc1cc2nccc(Oc3ccc(NC(=O)c4cn(CCC(C)C)cc(-c5ccc(F)cc5)c4=O)nc3)c2cc1OC` [Example 34, N-(5-((6,7-dimethoxyquinolin-4yl)oxy)pyridin-2-yl)-5-(4-fluorophenyl)-1-isopentyl-4-oxo-1,4-dihydropyridine-3-carboxamide], the IC50 at human MET kinase F1200I is 7.4 nM; on human MET kinase Y1230S, 4.1 nM; against human MET kinase L1195V, 11.2 nM; at human MET kinase Y1230C, 4.2 nM; on human MET kinase D1228N, 7.2 nM; on human MET kinase D1228H, 5.5 nM. Further, the results for the IC50 (in assay [1]; at human MET kinase Y1230H) were 9 nM and 5.9 nM, respectively.

With `CCn1cc(C(=O)Nc2ccc(Oc3ccnc4cc(OC)c(OC)cc34)cn2)c(=O)c(-c2ccc(F)cc2)c1` [Example 3], the IC50 against human MET kinase F1200I was 5 nM; at human MET kinase Y1230S, 4.7 nM; against human MET kinase L1195V, 15.3 nM; on human MET kinase Y1230C, 4.2 nM; on human MET kinase D1228N, 7.4 nM; at human MET kinase D1228H it was 4.7 nM. Also, the 50% inhibitory concentration (IC50) in assay [1] was 3 nM; at human MET kinase Y1230H, 6.4 nM.

`COc1cc2nccc(Oc3ccc(NC(=O)c4cn(C)cc(-c5ccc(F)cc5)c4=O)nc3)c2cc1OC` [Example 2]: the IC50 came out at 6.8 nM against human MET kinase F1200I; 9.8 nM at human MET kinase Y1230S; 87.1 nM against human MET kinase L1195V; 9.5 nM on human MET kinase Y1230C; 29.3 nM on human MET kinase D1228N; 16.6 nM on human MET kinase D1228H. Besides, the IC50 in assay [1] was determined as 3 nM; on human MET kinase Y1230H it was 18.2 nM.

As for `COc1cc2nccc(Oc3cnc(NC(=O)c4cn(C(C)C)cc(-c5ccc(F)cc5)c4=O)nc3)c2cc1OC` [Example 54, N-(5-((6,7-dimethoxyquinolin-4-yl)oxy)pyrimidin-2-yl)-5-(4-fluorophenyl)-1-isopropyl-4-oxo-1,4-dihydropyridine-3-carboxamide], the IC50 at human MET kinase F1200I was 6.7 nM; at human MET kinase Y1230S, 3.2 nM; against human MET kinase L1195V, 14.7 nM; on human MET kinase Y1230C it was 4.3 nM; on human MET kinase D1228N, 8.3 nM; at human MET kinase D1228H, 3.8 nM. For the same molecule, the values for the IC50 (in assay [1]; at human MET kinase Y1230H) were 10 nM and 7.2 nM, respectively.

`COc1cc2nccc(Oc3ccc(NC(=O)c4cn(CCN(C)C)cc(-c5ccc(F)cc5F)c4=O)nc3)c2cc1OC` [Example 44, 5-(2,4-difluorophenyl)-N-(5-((6,7-dimethoxyquinolin-4-yl)oxy)pyridin-2-yl)-1-(2-(dimethylamino)ethyl)-4-oxo-1,4-dihydropyridine-3-carboxamide]: the IC50 came to 4.2 nM against human MET kinase F1200I; 2.1 nM at human MET kinase Y1230S; 18.9 nM against human MET kinase L1195V; 1.7 nM on human MET kinase Y1230C; 3.2 nM on human MET kinase D1228N; 1.9 nM on human MET kinase D1228H. Moreover, the results for the IC50 (in assay [1]; on human MET kinase Y1230H) were 3 nM and 2.7 nM, respectively.

In the case of `CCOc1ccc2c(Oc3ccc(NC(=O)c4cn(C(C)C)cc(-c5ccc(F)cc5)c4=O)nc3)ccnc2c1` [Example 52, N-(5-((7-ethoxyquinolin-4-yl)oxy)pyridin-2-yl)-5-(4-fluorophenyl)-1-isopropyl-4-oxo-1,4-dihydropyridine-3-carboxamide], the IC50 came out at 20.1 nM at human MET kinase F1200I; 14.3 nM at human MET kinase Y1230S; 73.6 nM against human MET kinase L1195V; 13.1 nM at human MET kinase Y1230C; 26.3 nM on human MET kinase D1228N; 14.5 nM on human MET kinase D1228H. The IC50 came out at 11 nM in assay [1] and 32.6 nM at human MET kinase Y1230H.

Regarding `COc1cc2nccc(Oc3ccc(NC(=O)c4cn(CCC(C)C)cc(-c5ccc(Cl)cc5)c4=O)nc3)c2cc1OC` [Example 37], the IC50 against human MET kinase F1200I worked out at 16.4 nM; on human MET kinase Y1230S, 10.2 nM; on human MET kinase L1195V, 23.2 nM; on human MET kinase Y1230C, 9.3 nM; at human MET kinase D1228N it was 16.8 nM; on human MET kinase D1228H it was 10.5 nM. Moreover, the results for the IC50 (in assay [1]; at human MET kinase Y1230H) were 16 nM and 16.8 nM, respectively.

Take `CC(C)n1cc(C(=O)Nc2ccc(Oc3ccnc4cc(OC(F)(F)F)ccc34)cn2)c(=O)c(-c2ccc(F)cc2)c1` [Example 50, 5-(4-fluorophenyl)-1-isopropyl-4-oxo-N-(5-((7-(trifluoromethoxy)quinolin-4-yl)oxy)pyridin-2-yl)-1,4-dihydropyridine-3-carboxamide]: the IC50 on human MET kinase F1200I came out at 104 nM; at human MET kinase Y1230S, 166 nM; against human MET kinase L1195V, 1030 nM; at human MET kinase Y1230C, 199 nM; at human MET kinase D1228N, 444 nM; at human MET kinase D1228H, 223 nM. Besides, the IC50 in assay [1] is 79 nM; on human MET kinase Y1230H, 397 nM.

As for `CNC(=O)Cn1cc(C(=O)Nc2ccc(Oc3ccnc4cc(OC)c(OC)cc34)cn2)c(=O)c(-c2ccc(F)cc2)c1` [Example 22], the IC50 at human MET kinase F1200I worked out at 2.5 nM; at human MET kinase Y1230S, 2.2 nM; at human MET kinase L1195V it was 17.7 nM; at human MET kinase Y1230C, 2 nM; on human MET kinase D1228N, 6.5 nM; at human MET kinase D1228H it was 4.2 nM. Also, the IC50 in assay [1] was 3 nM; at human MET kinase Y1230H, 4.3 nM.

Take `COc1cc2nccc(Oc3ccc(NC(=O)c4cn(CC(C)(C)O)cc(-c5ccc(F)cc5)c4=O)nc3)c2cc1OC` [Example 9, N-(5-((6,7-dimethoxyquinolin-4-yl)oxy)pyridin-2-yl)-5-(4-fluorophenyl)-1-(2-hydroxy-2-methylpropyl)-4-oxo-1,4-dihydropyridine-3-carboxamide]: the IC50 against human MET kinase F1200I was 6.4 nM; on human MET kinase Y1230S it was 9.1 nM; against human MET kinase L1195V it was 47.7 nM; at human MET kinase Y1230C it was 6.2 nM; at human MET kinase D1228N, 15.8 nM; at human MET kinase D1228H it was 10 nM. The figures for the IC50 (in assay [1]; at human MET kinase Y1230H) were 3 nM and 13.1 nM, respectively.

With `COc1cc2nccc(Oc3ccc(NC(=O)c4cn(C(C)C)cc(-c5ccc(F)cc5Cl)c4=O)nc3)c2cc1OC` [Example 18, 5-(2-chloro-4-fluorophenyl)-N-(5-((6,7-dimethoxyquinolin-4-yl)oxy)pyridin-2-yl)-1-isopropyl-4-oxo-1,4-dihydropyridine-3-carboxamide], the IC50 against human MET kinase F1200I was determined as 4.3 nM; at human MET kinase Y1230S it was 2.7 nM; against human MET kinase L1195V, 21.4 nM; on human MET kinase Y1230C it was 2.4 nM; at human MET kinase D1228N, 4.7 nM; on human MET kinase D1228H it was 2.4 nM. Moreover, the IC50 in assay [1] was found to be 2 nM; on human MET kinase Y1230H, 4.6 nM.

As for `COc1cc2c(Oc3ccc(NC(=O)c4cn(C(C)C)cc(-c5ccc(F)cc5)c4=O)nc3)ccnc2cc1F` [Example 49, N-(5-((7-fluoro-6-methoxyquinolin-4yl)oxy)pyridin-2-yl)-5-(4-fluorophenyl)-1-isopropyl-4-oxo-1,4-dihydropyridine-3-carboxamide], the IC50 against human MET kinase F1200I amounted to 27.8 nM; at human MET kinase Y1230S, 67.1 nM; against human MET kinase L1195V it was 459 nM; on human MET kinase Y1230C, 39 nM; at human MET kinase D1228N it was 130 nM; at human MET kinase D1228H it was 64.3 nM. Further, the IC50 in assay [1] is 5 nM; at human MET kinase Y1230H it was 112 nM.

The term IC50 denotes the concentration needed to halve the response being measured.
